{
  "source": "patent CN113698460A",
  "about": "“一种大肠杆菌lipid A结合基元PCK及其制备方法与应用” (priority 2021, dated 2021)",
  "test_system": "北京鸭红细胞",
  "assay": "Hemolysis of red blood cells",
  "assay_type": "cell-based, Peking duck",
  "note": "No end group written: not given here.",
  "data": [
    {"compound": "SYPMYARRFLFKWGLLR-NH2 [PCK, Ser Tyr Pro Met Tyr Ala Arg Arg Phe Leu Phe Lys Trp Gly Leu Leu Arg-NH2]", "values": [
      {"measurement": "Toxicity to Peking duck red blood cells", "setting": "PCK 0.5-128 μg/mL", "value": "没有毒性"}
    ]},
    {"compound": "COc1ccc2cc3[n+](cc2c1OC)CCc1cc2c(cc1-3)OCO2", "note": "[小檗碱]", "values": [
      {"measurement": "Hemolysis rate", "setting": "berberine alone, concentration not given", "value": 1, "unit": "%"}
    ]}
  ]
}
